Where two headings read alike, the source gives them in different places.
Legend:
FGFR4 (h) = FGFR4 (h) (Homo sapiens, UniProt P22455); assay: FGFR4 (enzymatic assay), TR-FRET; assay type: biochemical; conditions: read-out: FGFR 4 pIC50 (converted)
Method: In a final reaction volume of 30 μL, FGFR4 (h) (60 ng/ml) was incubated with 50 mM HEPES pH 7.5, 6 mM MnCl2, 1 mM DTT, 0.1 mM Na3VO4, 0.01% Triton-X-100, 500 nM Btn-Flt3 and 5 μM ATP in the presence of compound (1% DMSO final). […] Time-Resolved Fluorescence Resonance Energy Transfer (TR-FRET) signal (ex340 nm. Em 620 nm, em 655 nm) was measured afterwards and results are expressed in RFU (Relative Fluorescence Units).

[1] = molecular target: Ba/F3-KDR-transfected cells (Homo sapiens, UniProt P35968); assay: Ba/F3-KDR (minus IL3) cellular proliferation assay, Alamar Blue; assay type: cell-based; conditions: minus IL3
Chain of Ba/F3-KDR-transfected cells (P35968 whole entry, change not shown): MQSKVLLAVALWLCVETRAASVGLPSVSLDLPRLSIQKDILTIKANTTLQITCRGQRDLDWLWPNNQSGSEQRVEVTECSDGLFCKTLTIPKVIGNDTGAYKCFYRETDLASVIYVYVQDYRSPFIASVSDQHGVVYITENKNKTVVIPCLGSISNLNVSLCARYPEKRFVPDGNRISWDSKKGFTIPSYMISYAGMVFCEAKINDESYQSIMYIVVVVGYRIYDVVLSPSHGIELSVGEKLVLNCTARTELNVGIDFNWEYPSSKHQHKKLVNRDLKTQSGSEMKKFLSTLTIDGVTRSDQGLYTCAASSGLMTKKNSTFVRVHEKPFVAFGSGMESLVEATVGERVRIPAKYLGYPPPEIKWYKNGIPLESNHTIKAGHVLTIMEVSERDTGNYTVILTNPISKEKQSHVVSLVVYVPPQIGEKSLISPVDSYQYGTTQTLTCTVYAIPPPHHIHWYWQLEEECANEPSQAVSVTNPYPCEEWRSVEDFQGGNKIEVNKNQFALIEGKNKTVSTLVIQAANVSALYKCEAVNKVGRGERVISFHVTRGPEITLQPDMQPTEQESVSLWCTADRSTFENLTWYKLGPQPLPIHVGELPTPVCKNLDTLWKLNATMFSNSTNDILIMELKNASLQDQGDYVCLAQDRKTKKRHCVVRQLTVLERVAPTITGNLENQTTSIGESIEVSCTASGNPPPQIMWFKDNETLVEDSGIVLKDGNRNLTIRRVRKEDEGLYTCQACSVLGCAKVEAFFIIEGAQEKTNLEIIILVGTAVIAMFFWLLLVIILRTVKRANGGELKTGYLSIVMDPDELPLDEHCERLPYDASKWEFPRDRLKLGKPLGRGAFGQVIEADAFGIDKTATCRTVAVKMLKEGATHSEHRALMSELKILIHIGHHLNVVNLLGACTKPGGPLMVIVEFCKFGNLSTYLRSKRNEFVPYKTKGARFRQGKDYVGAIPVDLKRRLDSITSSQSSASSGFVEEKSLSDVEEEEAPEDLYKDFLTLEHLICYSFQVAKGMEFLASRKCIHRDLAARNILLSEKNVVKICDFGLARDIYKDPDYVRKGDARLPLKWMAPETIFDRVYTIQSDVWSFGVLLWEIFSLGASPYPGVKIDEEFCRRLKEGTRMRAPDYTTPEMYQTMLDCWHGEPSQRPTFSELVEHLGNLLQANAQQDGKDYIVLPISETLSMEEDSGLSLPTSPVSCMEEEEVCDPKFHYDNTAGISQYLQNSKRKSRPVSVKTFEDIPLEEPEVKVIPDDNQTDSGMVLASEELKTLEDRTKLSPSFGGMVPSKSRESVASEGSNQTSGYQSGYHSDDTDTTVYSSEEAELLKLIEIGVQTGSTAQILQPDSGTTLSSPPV
How it was run: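 Fluorescence (ex 540, em 590 nm) from resazurin reduction, read after 4 h with Alamar Blue, reports viability of Ba/F3-KDR cells after 24 h of compound treatment at 37 °C. Counterscreen wells also contained 10 ng/ml murine IL3.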

[2] = molecular target: Ba/F3-FGFR4-transfected cells (Homo sapiens, UniProt P22455); assay: Ba/F3-FGFR4 cellular proliferation assay, Alamar Blue; assay type: cell-based
Chain of Ba/F3-FGFR4-transfected cells (P22455 whole entry, change not shown): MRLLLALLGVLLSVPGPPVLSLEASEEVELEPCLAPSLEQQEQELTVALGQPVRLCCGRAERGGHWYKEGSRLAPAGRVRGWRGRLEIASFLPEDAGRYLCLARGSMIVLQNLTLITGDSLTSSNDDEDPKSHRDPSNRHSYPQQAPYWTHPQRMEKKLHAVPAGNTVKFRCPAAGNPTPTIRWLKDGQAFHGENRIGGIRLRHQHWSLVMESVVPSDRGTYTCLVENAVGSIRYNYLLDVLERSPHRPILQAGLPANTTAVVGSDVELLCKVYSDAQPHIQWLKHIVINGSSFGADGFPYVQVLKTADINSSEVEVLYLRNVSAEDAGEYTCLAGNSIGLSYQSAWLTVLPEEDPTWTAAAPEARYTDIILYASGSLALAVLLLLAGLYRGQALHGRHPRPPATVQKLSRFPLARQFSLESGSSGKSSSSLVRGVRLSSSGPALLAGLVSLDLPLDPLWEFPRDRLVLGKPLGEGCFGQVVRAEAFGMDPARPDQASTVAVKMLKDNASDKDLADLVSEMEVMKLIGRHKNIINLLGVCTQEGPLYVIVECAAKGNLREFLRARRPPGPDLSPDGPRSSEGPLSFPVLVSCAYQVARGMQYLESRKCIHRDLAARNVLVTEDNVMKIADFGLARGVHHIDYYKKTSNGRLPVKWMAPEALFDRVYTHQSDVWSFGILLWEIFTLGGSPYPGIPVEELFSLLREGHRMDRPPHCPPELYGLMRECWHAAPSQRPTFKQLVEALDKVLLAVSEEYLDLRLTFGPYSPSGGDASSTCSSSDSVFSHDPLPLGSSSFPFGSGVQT
How it was run: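 Ba/F3 cells transfected with FGFR4, 20000 cells/well in phenol red-free RPMI-1640 with 10% FBS, were exposed to compound for 24 h at 37° C, 5% CO2. Alamar Blue (resazurin) was then added for 4 h, and fluorescence was read at ex 540/em 590 nm.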

KDR (h) (VEGFR2) = KDR (h) (VEGFR2) (Homo sapiens, UniProt P35968); assay: KDR (VEGFR2) (enzymatic assay), TR-FRET; assay type: biochemical
Chain of KDR (h) (VEGFR2) (P35968 20-1356): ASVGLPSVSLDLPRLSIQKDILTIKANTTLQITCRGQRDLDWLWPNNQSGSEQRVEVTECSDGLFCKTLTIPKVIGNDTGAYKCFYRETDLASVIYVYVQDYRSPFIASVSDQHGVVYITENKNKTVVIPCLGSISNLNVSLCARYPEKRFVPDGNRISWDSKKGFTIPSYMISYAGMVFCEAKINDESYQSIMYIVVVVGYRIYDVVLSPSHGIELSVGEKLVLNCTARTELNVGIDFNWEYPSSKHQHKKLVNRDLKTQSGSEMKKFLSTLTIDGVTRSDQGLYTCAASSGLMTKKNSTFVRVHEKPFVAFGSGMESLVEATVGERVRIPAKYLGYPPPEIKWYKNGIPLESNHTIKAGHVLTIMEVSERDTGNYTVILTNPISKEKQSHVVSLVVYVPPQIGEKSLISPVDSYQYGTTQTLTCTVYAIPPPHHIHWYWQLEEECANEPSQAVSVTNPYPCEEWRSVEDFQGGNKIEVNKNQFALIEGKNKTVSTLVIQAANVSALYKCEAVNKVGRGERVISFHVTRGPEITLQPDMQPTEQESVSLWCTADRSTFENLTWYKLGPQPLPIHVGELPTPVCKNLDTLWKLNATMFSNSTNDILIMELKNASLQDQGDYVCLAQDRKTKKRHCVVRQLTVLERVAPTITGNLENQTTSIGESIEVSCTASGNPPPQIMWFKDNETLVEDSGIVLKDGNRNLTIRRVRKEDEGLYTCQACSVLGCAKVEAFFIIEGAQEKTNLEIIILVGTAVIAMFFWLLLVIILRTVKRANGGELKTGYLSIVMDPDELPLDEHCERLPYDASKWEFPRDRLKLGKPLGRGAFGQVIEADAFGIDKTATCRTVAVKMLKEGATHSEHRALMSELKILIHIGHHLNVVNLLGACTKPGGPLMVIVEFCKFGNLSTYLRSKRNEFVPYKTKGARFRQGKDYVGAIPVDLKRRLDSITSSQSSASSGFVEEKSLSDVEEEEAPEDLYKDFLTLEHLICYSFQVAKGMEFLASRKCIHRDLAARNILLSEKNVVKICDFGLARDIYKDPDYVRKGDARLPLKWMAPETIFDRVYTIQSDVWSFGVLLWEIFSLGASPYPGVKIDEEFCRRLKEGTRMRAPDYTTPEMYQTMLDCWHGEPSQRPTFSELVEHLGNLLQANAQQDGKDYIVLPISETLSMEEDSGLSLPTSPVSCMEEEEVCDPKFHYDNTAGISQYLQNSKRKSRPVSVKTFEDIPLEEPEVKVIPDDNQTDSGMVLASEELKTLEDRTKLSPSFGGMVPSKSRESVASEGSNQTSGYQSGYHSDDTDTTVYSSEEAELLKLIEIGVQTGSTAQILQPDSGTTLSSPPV
How it was run: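 Read-out is TR-FRET (ex 340 nm, em 620 and 655 nm) in RFU, after an EDTA stop carrying Eu-labelled anti-phosphotyrosine and SA-XL-665 (60 min, RT). The preceding kinase reaction ran 120 min at RT with 150 ng/ml enzyme, 500 nM Btn-Flt3 and 3 μM ATP.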

[3] = system: Ba/F3-FGFR1-transfected cells in the presence of 10 ng/ml murine IL3; assay: Ba/F3-FGFR1 (plus IL3) cellular proliferation counterscreen, Alamar Blue; assay type: cell-based; conditions: Mus musculus
How it was run: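 24 h cmpd exposure, 37 °C/5% CO2; phenol red-free RPMI-1640, 10% FBS; 20000 cells/well (384) or 10000 cells/well (96); Alamar Blue (0.15 mM resazurin) 4 h; RFU ex 540/em 590.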

[4] = plus IL3, 384 well, read-out: BAF3-FGFR 1 (PLUS IL3) 384 well pIC50 (converted)
[5] = plus IL3, 96 well, read-out: BAF3-FGFR 1 (PLUS IL3) 96 well pIC50 (converted)

Chain of FGFR4 (h) (P22455 22-802): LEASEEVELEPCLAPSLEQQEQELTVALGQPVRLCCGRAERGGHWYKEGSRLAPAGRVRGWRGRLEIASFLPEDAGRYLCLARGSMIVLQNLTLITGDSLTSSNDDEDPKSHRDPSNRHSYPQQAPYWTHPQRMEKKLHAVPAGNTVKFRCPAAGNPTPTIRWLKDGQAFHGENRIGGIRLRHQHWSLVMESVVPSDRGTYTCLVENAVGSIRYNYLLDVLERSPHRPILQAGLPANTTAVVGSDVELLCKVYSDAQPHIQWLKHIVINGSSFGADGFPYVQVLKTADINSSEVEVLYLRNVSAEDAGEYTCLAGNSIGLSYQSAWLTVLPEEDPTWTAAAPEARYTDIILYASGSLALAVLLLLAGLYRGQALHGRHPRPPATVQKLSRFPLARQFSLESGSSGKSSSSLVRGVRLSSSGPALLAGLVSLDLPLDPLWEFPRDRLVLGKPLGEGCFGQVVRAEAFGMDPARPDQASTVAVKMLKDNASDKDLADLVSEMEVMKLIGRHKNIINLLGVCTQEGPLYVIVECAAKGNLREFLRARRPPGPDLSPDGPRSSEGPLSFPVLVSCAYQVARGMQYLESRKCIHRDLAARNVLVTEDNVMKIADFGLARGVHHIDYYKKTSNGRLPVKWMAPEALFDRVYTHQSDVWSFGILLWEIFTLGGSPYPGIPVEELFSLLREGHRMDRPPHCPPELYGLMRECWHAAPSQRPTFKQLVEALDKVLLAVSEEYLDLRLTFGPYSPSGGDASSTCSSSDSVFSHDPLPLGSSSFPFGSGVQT

SMILES	IC50 (FGFR4 (h)) [nM]	BAF3-KDR (MIN IL3) 384 well pIC50 [1]	BAF3-FGFR4 pIC50 [2]	IC50 (KDR (h) (VEGFR2)) [nM]	IC50 [3, 4] [nM]	BAF3-KDR (MIN IL3) 96 well pIC50 [1]	IC50 [3, 5] [nM]
COc1cc(OC)cc(N(CCCO)c2ccc3ncc(-c4ccnc(C(=O)NCCCN)c4)nc3c2)c1 [Compound 33]	115	<5	5.2	575	> 10000		
COc1cc(OC)cc(N(CC2CC2)c2ccc3ncc(-c4cn(CCO)nn4)nc3c2)c1 [Compound 40]	302	<5	~5.0	398	> 10000	<5	> 10000
COc1cc(OC)cc(N(CC2CC2)c2ccc3ncc(-c4nnn[nH]4)nc3c2)c1 [Compound 41]	79.4	<5	<5	3310	> 10000		> 10000
COc1cc(OC)cc(N(CCCO)c2ccc3ncc(-c4ccc(N5CCNCC5)nc4)nc3c2)c1 [Compound 48]	15.5	5.39	6.5	110	~5250		
COc1cc(OC)cc(N(CC2CC2)c2ccc3ncc(-n4cncn4)nc3c2)c1 [Compound 50]	> 1000	<5	<5	> 1000	> 10000	<5	> 10000
COc1cc(OC)cc(N(Cc2cccc(CN)n2)c2ccc3ncc(-c4ccc(N)nc4)nc3c2)c1 [Compound 51]	69.2	5.04	5.7	309	> 10000		
COc1cc(OC)cc(N(CC2CC2)c2ccc3ncc(-c4cnco4)nc3c2)c1 [Compound 55]	275	<5	<5	912	> 10000	<5	> 10000
COc1cc(OC)cc(N(CC2CC2)c2ccc3ncc(-c4ccn[nH]4)nc3c2)c1 [Compound 58]	550	<5	<5	> 1000	> 10000		> 10000
COc1cc(OC)cc(N(CC2CC2)c2ccc3ncc(-c4nccn4C)nc3c2)c1 [Compound 60]	1120	<5	<5	> 10000	> 10000		> 10000
COc1cc(OC)cc(N(CC2CC2)c2ccc3ncc(-n4nccc4C)nc3c2)c1 [Compound 62]	> 1000	<5	<5	> 1000	> 10000		> 10000
CCOC(=O)c1ncn(-c2cnc3ccc(N(CC4CC4)c4cc(OC)cc(OC)c4)cc3n2)c1C [Compound 65]	> 1000	<5	<5	> 1000	> 10000	<5	> 10000
COc1cc(OC)cc(N(CCCO)c2ccc3ncc(-c4ccnc(N)c4)nc3c2)c1 [Compound 66]	13.2	5.52	6.3	75.9	> 10000		
COc1cc(OC)cc(N(CC2CC2)c2ccc3ncc(-c4cn[nH]n4)nc3c2)c1 [Compound 69]	251	<5	<5	> 1000	> 10000	<5	> 10000
COc1cc(OC)cc(N(CC(O)CO)c2ccc3ncc(-c4ccc(N)nc4)nc3c2)c1 (stereo not drawn) [Compound 74]	26.9	<5	6.1	309	> 10000		
